From patent EP0578644B1, “ANTIBIOTIC A 40926 ESTER DERIVATIVES” (GRUPPO LEPETIT S.p.A., priority 1991, dated 1992)

Experiments:
[1] = test system: Streptococcus pyogenes C203; experiment: mouse septicemia (in vivo test); details: CD-1 mice infected intraperitoneally; antibiotics administered subcutaneously immediately after infection; calculated on the 7th day from surviving animals (Spearman and Kaerber)
Procedure: In these in vivo tests control and treatment groups contained five CD-1 mice (Charles River) weighting 18-22 g. They were infected intraperitoneally with 0.5 ml of bacterial suspension prepared by diluting an overnight culture of Streptococcus pyogenes C203 with sterile peptonized saline. Inocula were adjusted so that untreated animals died of septicemia within 48 hours. Antibiotics were administered subcutaneously immediately after infection. On the 7th day, the ED50 in mg/kg was calculated by the method of Spearman and Kaerber (D.J. Finney, "Statistical Methods in Biological Assay", Griffin, page 524, 1952) from the percentages of surviving animals at each dose. The results of the in vivo testing of representative compounds of the invention are summmarized in Table II below: Table II

[2] = test system: coagulase-negative staphylococci; experiment: in vitro antibacterial activity (MIC, microbroth dilution); assay type: cell-based; details: compared with the parent compounds (X vs I and VIII vs VII)

Row | Compound | ED50 [1] [mg/kg] | in vitro activity against coagulase-negative staphylococci [2]
1 | CN[C@H]1C(=O)N[C@@H]2Cc3ccc(cc3)Oc3cc4cc(c3O)Oc3ccc(cc3Cl)[C@@H](O)[C@@H]3NC(=O)[C@H](NC(=O)[C@@H]4NC(=O)[C@@H](NC2=O)c2cc(cc(O)c2Cl)Oc2cc1ccc2O)c1ccc(O)c(c1)-c1c(O)cc(O)cc1[C@@H](C(=O)O)NC3=O [A 40926 aglycone, reference compound] | 6.2 | –
2 | Demannosyl A 40926 complex 6^B-(2-bromoethyl) ester [compound VIII] | 0.31 | better in vitro activity
3 | O^42-demannosyl A 40926 6^B-methyl ester [compound X] | 0.31 | better in vitro activity
4 | antibiotic A 40926 complex 6^B-(2-hydroxyethyl) ester [compound V] | 0.18 | –
5 | antibiotic A 40926 complex 6^B-monoethyl ester [compound II] | 0.23 | –
6 | antibiotic A 40926 complex 6^B-monomethyl ester [compound I] | 0.18 | –
